The subject of one experiment is KB cells. The experiment in a line: Cytotoxicity against KB cells (crystal violet dying method). The experiment is classed as cell-based. To be noted: Homo sapiens, read-out: Cytotoxicity [IC50 (μM)]. The protocol:
Test 1 Cytotoxicity against KB cells
The residue was re-suspended in an MEM medium containing 10% fetal bovine serum. Then, an equivalent amount of a 0.2% trypan blue solution was added to a portion of the cell suspension, followed by mixing. The number of living cells which had not been dyed with the trypan blue was counted by a hemocytometer and the suspension was diluted and adjusted with the above-described culture medium to give a cell concentration of 1×10^4 cells/ml. Each well of a 96-well plate was inoculated with a 100-μl portion of the resulting suspension, in other words, was inoculated to give a concentration of 1×10^3 cells/well.
To the cells cultured in a CO2 incubator for 24 hours after the inoculation was added 100 μl/well of a medicament solution, followed by culturing for 72 hours. To a control was added 100 μl of an MEM medium.
The cytotoxicity of the medicament was determined from a change in the number of the cells by using the crystal violet dying method.
After washing the plate with water, 100 μl/well of a 0.05% crystal violet solution dissolved in 20% methanol was added to dye the cells therewith for about 15 minutes. The plate was washed to remove the unbound crystal violet, followed by the addition of 100 μl/well of 0.05M NaH2 PO4 /ethanol (1:1 v/v), whereby the crystal violet bound to the cellular protein was extracted.

Experiment [1] concerns region abundant in guanine and cytosine. Nature of the experiment: interaction with DNA region abundant in guanine and cytosine. The experiment is classed as binding. An excerpt: (§1) The naphthalimidobenzamide derivatives (1) or salts thereof according to the present invention are compounds synthesized to have a high affinity with DNA and base sequence selectivity. As a result of various investigations, it has been confirmed that the compounds of the present invention each has a high affinity with DNA based on the results of various tests including a test using ethidium bromide displacement assay or the like. It has also been confirmed that they have stronger affinities with respective base sequence regions.

For experiment [2], the system named is human skin cancer strains LOX. Nature of the experiment: antitumor test in nude mouse subcutaneously transplanted with human skin cancer strains LOX. The experiment is classed as in vivo.
In experiment [3] the test system is human breast cancer strains MX1. Nature of the experiment: antitumor test in nude mouse subcutaneously transplanted with human breast cancer strains MX1. The experiment is classed as in vivo.
Experiment [4] has as its system human pancreatic cancer strains PAN6. The experiment in a line: antitumor test in nude mouse subcutaneously transplanted with human pancreatic cancer strains PAN6. The experiment is classed as in vivo.
The subject of experiment [5] is human gastric cancer strains AZ521. Nature of the experiment: antitumor test in nude mouse subcutaneously transplanted with human gastric cancer strains AZ521. The experiment is classed as in vivo.
The test system of experiment [6] is region abundant in adenine and thymine. The experiment in a line: interaction with DNA region abundant in adenine and thymine. The experiment is classed as binding.
Text: as §1

Where [7] appears, read: KB cells, 72 hours, 50% proliferation inhibition.

The text below walks through data of patent US6300331A, “Naphthalimidobenzamide derivatives” (Taiho Pharmaceutical Co., Ltd., priority 1998, dated 2001).

Where a name gives a salt, the structure may show the parent alone. Read-outs that look alike come from different tables or passages of the source.

What is called IC50 is the point on the concentration scale where inhibition reaches its midpoint. On to `O=C(NCCNCCN1C(=O)c2cccc3cc([N+](=O)[O-])cc(c23)C1=O)c1cc(C(=O)NCCNCCN2C(=O)c3cccc4cc([N+](=O)[O-])cc(c34)C2=O)cc(N2C(=O)c3cccc4cc([N+](=O)[O-])cc(c34)C2=O)c1` [Example 4, 1,3-bis[N-[2-[[2-(3-nitro-1,8-naphthalimido)ethyl]amino]ethyl]carbamoyl]-5-(3-nitro-1,8-naphthalimido)benzene dihydrochloride], for which the IC50 in the experiment on KB cells (setting [7]) came to 0.048 µM. For the same compound, in experiment [1], the “interaction with a region abundant in guanine and cytosine” value was “strong interaction”. As to `O=C(NCCNCCN1C(=O)c2cccc3cc([N+](=O)[O-])cc(c23)C1=O)c1cc(C(=O)NCCN2CCCCC2)cc(N2C(=O)c3cccc4cc([N+](=O)[O-])cc(c34)C2=O)c1` [Example 46, 1-(3-nitro-1,8-naphthalimido)-3-[N-[2-[[2-(3-nitro-1,8-naphthalimido)ethyl]amino]ethyl]carbamoyl]-5-[N-(2-piperidinoethyl)carbamoyl]benzene hydrochloride], the half-inhibitory concentration (IC50) in the experiment with KB cells (KB, 72 h) came to 0.053 µM. Further, the “inhibitory effects against tumor proliferation” value in experiment [2] is on record as 96.2%; in experiment [3], 71.8%; in experiment [4], 59.8%; in experiment [5], 79.5%.

`Cn1cc(NC(=O)c2cc(NC=O)cn2C)cc1C(=O)NCCNCCNC(=O)c1cc(C(=O)NCCNCCNC(=O)c2cc(NC(=O)c3cc(NC=O)cn3C)cn2C)cc(N2C(=O)c3cccc4cc([N+](=O)[O-])cc(c34)C2=O)c1` [Example 30, 1,3-bis[N-[2-[[2-[4-(4-formamido-1-methylpyrrole-2-carbonylamino)-1-methylpyrrole-2-carbonylamino]ethyl]amino]ethyl]carbamoyl]-5-(3-nitro-1,8-naphthalimido)benzene dihydrochloride]: in experiment [6], the “interaction with a region abundant in adenine and thymine” value was “strong interaction”. In the case of `O=C(NCCNCCN1C(=O)c2cccc3c(Cl)ccc(c23)C1=O)c1cc(C(=O)NCCNCCN2C(=O)c3cccc4c(Cl)ccc(c34)C2=O)cc(N2C(=O)c3cccc4cccc(c34)C2=O)c1` [Example 9, 1,3-bis[N-[2-[[2-(4-chloro-1,8-naphthalimido)ethyl]amino]ethyl]carbamoyl]-5-(1,8-naphthalimido)benzene dihydrochloride], the IC50 with KB cells (setting [7]) was 0.023 µM.

In the case of `CN1CCN(C(=O)c2cc(C(=O)NCCNCCN3C(=O)c4cccc5cc([N+](=O)[O-])cc(c45)C3=O)cc(N3C(=O)c4cccc5cc([N+](=O)[O-])cc(c45)C3=O)c2)CC1` [Example 49, 1-(4-methylpiperazino)carbonyl-3-(3-nitro-1,8-naphthalimido)-5-[N-[2-[[2-(3-nitro-1,8-naphthalimido)ethyl]amino]ethyl]carbamoyl]benzene hydrochloride], in the experiment on KB cells (setting [7]), the IC50 was determined as 0.035 µM. Consider `O=C(NCCNCCN1C(=O)c2cc3ccccc3cc2C1=O)c1cc(C(=O)NCCNCCN2C(=O)c3cc4ccccc4cc3C2=O)cc(N2C(=O)c3cccc4cc([N+](=O)[O-])cc(c34)C2=O)c1` [Example 7, 1,3-bis[N-[2-[[2-(2,3-naphthalimido)ethyl]amino]ethyl]carbamoyl]-5-(3-nitro-1,8-naphthalimido)benzene dihydrochloride], for which, in the experiment on KB cells (setting [7]), the IC50 is 4.1 µM. On to `O=C(NCCNCCN1C(=O)c2cc3ccccc3cc2C1=O)c1cc(C(=O)NCCNCCN2C(=O)c3cccc4cc([N+](=O)[O-])cc(c34)C2=O)cc(N2C(=O)c3cccc4cc([N+](=O)[O-])cc(c34)C2=O)c1` [Example 17, 1-[N-[2-[[2-(2,3-naphthalimido)ethyl]amino]ethyl]carbamoyl]-3-(3-nitro-1,8-naphthalimido)-5-[N-[2-[[2-(3-nitro-1,8-naphthalimido)ethyl]amino]ethyl]carbamoyl]benzene dihydrochloride], for which, in the experiment on KB cells (setting [7]), the IC50 worked out at 0.28 µM.
